Experiments:
Format in all cases: physicochemical
[1] = acceleration test (stability); conditions: relative humidity 75%±5%; for (%) Impurity B (%) / Crystal form / appearance / Enantiomer (%) / Impurity A (%) / Impurity C (%) / Loss on drying (%) / Single largest impurity (%) / Total relevant substances (%) / content(%): 40° C.±2° C.
Method: (§1) Stability tests were performed on the samples of Examples 1, 2, 3, 4 and 5. […] Please refer to the results of the acceleration test (40° C.±2° C., relative humidity 75%±5%) of Table 1 and the results of the long-term stability test (25° C.±2° C., relative humidity 60%±10%) of Table 2.

long-term stability test [2] = conditions: 36 months, temperature 25° C. ±2° C.; relative humidity 60%±5%
long-term stability test [3] = conditions: 25° C.±2° C., relative humidity 60%±10%
Method: as §1

(S)-2-(4-fluorophenyl)-4-(piperidine-3-aminomethyl)thieno[2,3-d]pyridazine-7-carboxamide hydrochloride [Example 1]
changes in moisture, related substances, optical isomers and contents under storage conditions ([1]; 6 months, temperature 40° C.±2° C.): no significant changes | changes in moisture, related substances, optical isomers and contents under storage conditions (long-term stability test [2]): no significant changes

(S)-2-(4-fluorophenyl)-4-(piperidine-3-aminomethyl)thieno[2,3-d]pyridazine-7-carboxamide hydrochloride [Example 110601-1]
(%) Impurity B (%) ([1]; 0 month): 0.00% | Crystal form ([1]; 0 month): unchanged | appearance ([1]; 0 month): yellow crystalline powder | Enantiomer (%) ([1]; 0 month, hydrochloride): 0.11% | Impurity A (%) ([1]; 0 month, hydrochloride): 0.36% | Impurity C (%) ([1]; 0 month, hydrochloride): 0.03% | Loss on drying (%) ([1]; 0 month, hydrochloride): 7.1% | Single largest impurity (%) ([1]; 0 month, hydrochloride): 0.02% | Total relevant substances (%) ([1]; 0 month, hydrochloride): 0.47% | content(%) ([1]; 0 month, hydrochloride): 99.1% | Crystal form ([1]; 1 month): unchanged | Impurity C (%) ([1]; 1 month): 0.02% | appearance ([1]; 1 month): yellow crystalline powder | (%) Impurity B (%) ([1]; 1 month, hydrochloride): 0.00% | Enantiomer (%) ([1]; 1 month, hydrochloride): 0.13% | Impurity A (%) ([1]; 1 month, hydrochloride): 0.34% | Loss on drying (%) ([1]; 1 month, hydrochloride): 7.1% | Single largest impurity (%) ([1]; 1 month, hydrochloride): 0.02% | Total relevant substances (%) ([1]; 1 month, hydrochloride): 0.46% | content(%) ([1]; 1 month, hydrochloride): 100.5% | Crystal form ([1]; 2 months): unchanged | appearance ([1]; 2 months): yellow crystalline powder | (%) Impurity B (%) ([1]; 2 months, hydrochloride): 0.00% | Enantiomer (%) ([1]; 2 months, hydrochloride): 0.11% | Impurity A (%) ([1]; 2 months, hydrochloride): 0.35% | Impurity C (%) ([1]; 2 months, hydrochloride): 0.02% | Loss on drying (%) ([1]; 2 months, hydrochloride): 7.1% | Single largest impurity (%) ([1]; 2 months, hydrochloride): 0.02% | Total relevant substances (%) ([1]; 2 months, hydrochloride): 0.44% | content(%) ([1]; 2 months, hydrochloride): 100.6% | (%) Impurity B (%) ([1]; 3 months): 0.00% | Crystal form ([1]; 3 months): unchanged | Impurity C (%) ([1]; 3 months): 0.02% | appearance ([1]; 3 months): yellow crystalline powder | Enantiomer (%) ([1]; 3 months, hydrochloride): 0.1% | Impurity A (%) ([1]; 3 months, hydrochloride): 0.33% | Loss on drying (%) ([1]; 3 months, hydrochloride): 7.0% | Single largest impurity (%) ([1]; 3 months, hydrochloride): 0.03% | Total relevant substances (%) ([1]; 3 months, hydrochloride): 0.44% | content(%) ([1]; 3 months, hydrochloride): 99.6% | (%) Impurity B (%) ([1]; 6 months): 0.00% | Crystal form ([1]; 6 months): unchanged | Impurity C (%) ([1]; 6 months): 0.02% | appearance ([1]; 6 months): yellow crystalline powder | Enantiomer (%) ([1]; 6 months, hydrochloride): 0.08% | Impurity A (%) ([1]; 6 months, hydrochloride): 0.30% | Loss on drying (%) ([1]; 6 months, hydrochloride): 7.0% | Single largest impurity (%) ([1]; 6 months, hydrochloride): 0.03% | Total relevant substances (%) ([1]; 6 months, hydrochloride): 0.41% | content(%) ([1]; 6 months, hydrochloride): 99.6% | Crystal form (long-term stability test [3]; 0 month): unchanged | ImpurityB(%) (long-term stability test [3]; 0 month): 0.00% | Content (calculated by dried product )(%) (long-term stability test [3]; 0 month, hydrochloride): 99.1% | Enantiomers (%) (long-term stability test [3]; 0 month, hydrochloride): 0.11% | ImpurityA(%) (long-term stability test [3]; 0 month, hydrochloride): 0.36% | ImpurityC(%) (long-term stability test [3]; 0 month, hydrochloride): 0.03% | Loss on drying (%) (long-term stability test [3]; 0 month, hydrochloride): 7.1% | Single largest impurity (%) (long-term stability test [3]; 0 month, hydrochloride): 0.02% | Total relevant substances (%) (long-term stability test [3]; 0 month, hydrochloride): 0.47% | appearance (long-term stability test [3]; 0 month, hydrochloride): yellow crystalline powder | Crystal form (long-term stability test [3]; 3 months): unchanged | ImpurityB(%) (long-term stability test [3]; 3 months): 0.00% | ImpurityC(%) (long-term stability test [3]; 3 months): 0.02% | Content (calculated by dried product )(%) (long-term stability test [3]; 3 months, hydrochloride): 99.9% | Enantiomers (%) (long-term stability test [3]; 3 months, hydrochloride): 0.11% | ImpurityA(%) (long-term stability test [3]; 3 months, hydrochloride): 0.35% | Loss on drying (%) (long-term stability test [3]; 3 months, hydrochloride): 7.0% | Single largest impurity (%) (long-term stability test [3]; 3 months, hydrochloride): 0.02% | Total relevant substances (%) (long-term stability test [3]; 3 months, hydrochloride): 0.45% | appearance (long-term stability test [3]; 3 months, hydrochloride): yellow crystalline powder | Crystal form (long-term stability test [3]; 6 months): unchanged | ImpurityB(%) (long-term stability test [3]; 6 months): 0.00% | Content (calculated by dried product )(%) (long-term stability test [3]; 6 months, hydrochloride): 99.8% | Enantiomers (%) (long-term stability test [3]; 6 months, hydrochloride): 0.08% | ImpurityA(%) (long-term stability test [3]; 6 months, hydrochloride): 0.34% | ImpurityC(%) (long-term stability test [3]; 6 months, hydrochloride): 0.03% | Loss on drying (%) (long-term stability test [3]; 6 months, hydrochloride): 7.0% | Single largest impurity (%) (long-term stability test [3]; 6 months, hydrochloride): 0.02% | Total relevant substances (%) (long-term stability test [3]; 6 months, hydrochloride): 0.41% | appearance (long-term stability test [3]; 6 months, hydrochloride): yellow crystalline powder | Crystal form (long-term stability test [3]; 9 months): unchanged | ImpurityC(%) (long-term stability test [3]; 9 months): 0.02% | Content (calculated by dried product )(%) (long-term stability test [3]; 9 months, hydrochloride): 99.8% | Enantiomers (%) (long-term stability test [3]; 9 months, hydrochloride): 0.08% | ImpurityA(%) (long-term stability test [3]; 9 months, hydrochloride): 0.34% | ImpurityB(%) (long-term stability test [3]; 9 months, hydrochloride): 0.02% | Loss on drying (%) (long-term stability test [3]; 9 months, hydrochloride): 7.0% | Single largest impurity (%) (long-term stability test [3]; 9 months, hydrochloride): 0.03% | Total relevant substances (%) (long-term stability test [3]; 9 months, hydrochloride): 0.47% | appearance (long-term stability test [3]; 9 months, hydrochloride): yellow crystalline powder | Crystal form (long-term stability test [3]; 12 months): unchanged | ImpurityB(%) (long-term stability test [3]; 12 months): 0.01% | Single largest impurity (%) (long-term stability test [3]; 12 months): 0.02% | Content (calculated by dried product )(%) (long-term stability test [3]; 12 months, hydrochloride): 99.4% | Enantiomers (%) (long-term stability test [3]; 12 months, hydrochloride): 0.1% | ImpurityA(%) (long-term stability test [3]; 12 months, hydrochloride): 0.34% | ImpurityC(%) (long-term stability test [3]; 12 months, hydrochloride): 0.02% | Loss on drying (%) (long-term stability test [3]; 12 months, hydrochloride): 7.1% | Total relevant substances (%) (long-term stability test [3]; 12 months, hydrochloride): 0.43% | appearance (long-term stability test [3]; 12 months, hydrochloride): yellow crystalline powder | Crystal form (long-term stability test [3]; 18 months): unchanged | ImpurityB(%) (long-term stability test [3]; 18 months): 0.00% | Single largest impurity (%) (long-term stability test [3]; 18 months): 0.02% | Content (calculated by dried product )(%) (long-term stability test [3]; 18 months, hydrochloride): 99.5% | Enantiomers (%) (long-term stability test [3]; 18 months, hydrochloride): 0.07% | ImpurityA(%) (long-term stability test [3]; 18 months, hydrochloride): 0.37% | ImpurityC(%) (long-term stability test [3]; 18 months, hydrochloride): 0.04% | Loss on drying (%) (long-term stability test [3]; 18 months, hydrochloride): 7.0% | Total relevant substances (%) (long-term stability test [3]; 18 months, hydrochloride): 0.45% | appearance (long-term stability test [3]; 18 months, hydrochloride): yellow crystalline powder | Crystal form (long-term stability test [3]; 24 months): unchanged | Enantiomers (%) (long-term stability test [3]; 24 months): 0.08% | ImpurityB(%) (long-term stability test [3]; 24 months): 0.00% | ImpurityC(%) (long-term stability test [3]; 24 months): 0.02% | Single largest impurity (%) (long-term stability test [3]; 24 months): 0.02% | Content (calculated by dried product )(%) (long-term stability test [3]; 24 months, hydrochloride): 98.3% | ImpurityA(%) (long-term stability test [3]; 24 months, hydrochloride): 0.37% | Loss on drying (%) (long-term stability test [3]; 24 months, hydrochloride): 7.4% | Total relevant substances (%) (long-term stability test [3]; 24 months, hydrochloride): 0.43% | appearance (long-term stability test [3]; 24 months, hydrochloride): yellow crystalline powder | Crystal form (long-term stability test [3]; 36 months): unchanged | ImpurityC(%) (long-term stability test [3]; 36 months): 0.02% | Single largest impurity (%) (long-term stability test [3]; 36 months): 0.02% | Content (calculated by dried product )(%) (long-term stability test [3]; 36 months, hydrochloride): 99.9% | Enantiomers (%) (long-term stability test [3]; 36 months, hydrochloride): 0.07% | ImpurityA(%) (long-term stability test [3]; 36 months, hydrochloride): 0.38% | ImpurityB(%) (long-term stability test [3]; 36 months, hydrochloride): 0.02% | Loss on drying (%) (long-term stability test [3]; 36 months, hydrochloride): 7.3% | Total relevant substances (%) (long-term stability test [3]; 36 months, hydrochloride): 0.50% | appearance (long-term stability test [3]; 36 months, hydrochloride): yellow crystalline powder

— patent US20230183259A1, “Crystal Form Of Thiofuran Pyridazine Compound, Preparation Method Therefor And Application Thereof” (ZHEJIANG MEDICINE CO., LTD. XINCHANG PHARMACEUTICAL FACTORY, priority 2020, published 2023)
